From paper PMC9592910, “Tissue distribution and integrated pharmacokinetic properties of major effective constituents of oral Gegen-Qinlian decoction in mice” (Frontiers in Pharmacology, 2022)
Marks after values point to notes of the source that are not given here.

Assays:
Assay type in all cases: in vivo, Kunming mice
[1] = Pharmacokinetics/tissue distribution of GQD constituents in the colons of mice after oral GQD
Procedure: (§1) The liver and the colon homogenates were prepared with 10 times (V: W) the volume of ascorbic acid solution (200 μg/ml). Then the homogenates were pretreated as plasma to obtain the tissue samples for LC-MS/MS analysis. Fifty-four Kunming mice were randomly divided into nine groups according to body weight and gender (3 male and three female in each group). […] Then the C-T curves of the constituents in the plasma and the tissue homogenates were respectively drawn and their pharmacokinetic parameters were respectively calculated. […] It should be noted that the pharmacokinetic parameters of a GQD constituent was calculated based on its average concentration in six mice at each time point. The results were expressed as mean ± SD.

[2] = Pharmacokinetics of GQD constituents in the portal vein of mice after oral GQD; conditions: for AUC(0-t): read-out: AUC0–24 h
Procedure: (§2) Fifty-four Kunming mice were randomly divided into nine groups according to body weight and gender (3 male and three female in each group). Each group was orally administered with water solution (0.2 ml/10 g body weight) of the GQD extract powder at the dosage of 6.1 g/kg body weight. The dosage of GQD extract powder equals to 18 g/kg herbal pieces of GQD, which is equivalent to its clinical dosage. At each designed time point (0.08, 0.25, 0.5, 1, 2, 4, 8, 12, and 24 h) after oral administration, six mice were anesthetized with ether, and blood was collected from the portal vein (about 0.2 ml, aspirated in a 1 ml heparinized syringe) and then the systemic circulation (about 0.2 ml, collected in heparinized tubes after removal of the eyeball) of the mice to prepare plasma samples, and the livers and the colons were removed to prepare respective homogenate. After pretreatment, the concentrations of 19 major constituents of GQD in each sample were measured by the validated LC-MS/MS method (see “2.3”). Then the C-T curves of the constituents in the plasma and the tissue homogenates were respectively drawn and their pharmacokinetic parameters were respectively calculated.
(§3) It should be noted that the pharmacokinetic parameters of a GQD constituent was calculated based on its average concentration in six mice at each time point. The results were expressed as mean ± SD.

[3] = Pharmacokinetics/tissue distribution of GQD constituents in the livers of mice after oral GQD
Procedure: as §1

[4] = Pharmacokinetics of GQD constituents in the systemic circulation of mice after oral GQD; conditions: mouse; for half-life / Tmax / Cmax / MRT / AUC(0-t): both, Kunming; for Cmax / MRT / AUC(0-t): oral GQD 6.1 g/kg; for AUC(0-t): read-out: AUC0–24 h
Procedure: as §2, §3

[5] = both, Kunming, mouse, colon (homogenate), po, […], colon, mice, oral GQD extract […], read-out: T1/2 (converted)
[6] = both, Kunming, mouse, colon (homogenate), colon, mice, oral GQD extract 6.1 g/kg
[7] = both, Kunming, mouse, colon (homogenate), colon, mice, oral GQD extract 6.1 g/kg, read-out: Tmax
[8] = colon, mice, oral GQD extract […]
[9] = both, Kunming, mouse, portal vein plasma, po, […], portal vein plasma, mice, oral GQD extract […], read-out: Tmax
[10] = both, Kunming, mouse, portal vein plasma, mice, oral GQD extract 6.1 g/kg
[11] = both, Kunming, mouse, portal vein plasma, mice, oral GQD extract 6.1 g/kg, read-out: T1/2 (converted)
[12] = both, Kunming, mouse, liver (homogenate), po, […], liver, mice, oral GQD extract […], read-out: T1/2 (converted)
[13] = both, Kunming, mouse, liver (homogenate), liver, mice, oral GQD extract 6.1 g/kg
[14] = both, Kunming, mouse, liver (homogenate), liver, mice, oral GQD extract 6.1 g/kg, read-out: Tmax
[15] = liver, mice, oral GQD extract […]
[16] = systemic circulation plasma, po, […], systemic circulation plasma, mice, oral GQD […], read-out: T1/2 (converted)
[17] = systemic circulation plasma, po, […], systemic circulation plasma, mice, oral GQD […], read-out: Tmax
[18] = systemic circulation plasma, mice
[19] = both, Kunming, mouse, in vivo, po, […]
[20] = both, Kunming, mouse, in vivo, po, […], T1/2
[21] = both, Kunming, mouse, in vivo, po, […], Tmax
[22] = portal vein plasma, mice, oral GQD extract […]

## O=c1cc(-c2ccccc2)oc2cc(O)c(O)c(O)c12 [Baicalein, baicalein]
[1]; [5]
  half-life: 2 to 3 h
[1]; [6]
  Cmax: 1920 ng/g
  MRT: 5.8 h
[1]; [7]
  Tmax: 4 h
[1]; [8]
  T1/2: 2.6 h
[2]; [9]
  Tmax: 2 h
[2]; [10]
  Cmax: 381 ng/mL
  MRT: 3.8 h
  AUC(0-t): 1760 ng·h/mL
[2]; [11]
  half-life: 1.3 h
[3]; [12]
  half-life: 2 to 3 h
[3]; [13]
  Cmax: 9020 ng/g
  MRT: 4.3 h
[3]; [14]
  Tmax: 4 h
[3]; [15]
  T1/2: 2.3 h
[4]; [16]
  half-life: 6.3 h
[4]; [17]
  Tmax: 4 h
[4]; [18]
  Cmax: 26.7 ng/mL
  MRT: 6.8 h
  AUC(0-t): 229 ng·h/mL

## O=C(O)[C@H]1O[C@@H](Oc2cc3oc(-c4ccccc4)cc(=O)c3c(O)c2O)[C@H](O)[C@@H](O)[C@@H]1O [Baicalin, baicalin]
[1]; [5]
  half-life: 15 to 19 h
[1]; [6]
  Cmax: 3460 ng/g
  MRT: 9.9 h
[1]; [7]
  Tmax: 1 h
[1]; [8]
  T1/2: 18.6# h
[2]; [9]
  Tmax: 4 h
[2]; [10]
  Cmax: 8150 ng/mL
  MRT: 4.5 h
  AUC(0-t): 46300 ng·h/mL
[2]; [11]
  half-life: 2 h
[3]; [12]
  half-life: 1 to 2 h
[3]; [13]
  Cmax: 5710 ng/g
  MRT: 3.7 h
[3]; [14]
  Tmax: 2 h
[3]; [15]
  T1/2: 1.7 h
[4]; [16]
  half-life: 3.1 h
[4]; [17]
  Tmax: 4 h
[4]; [18]
  Cmax: 1450 ng/mL
  MRT: 5.1 h
  AUC(0-t): 8670 ng·h/mL

## COc1ccc2cc3[n+](cc2c1O)CCc1cc2c(cc1-3)OCO2 [Berberrubine, berberrubine]
[1]; [5]
  half-life: 14.3 h
[1]; [6]
  Cmax: 293 ng/g
  MRT: 10.1 h
[1]; [7]
  Tmax: 4 h
[2]; [9]
  Tmax: 0.25 h
[2]; [10]
  Cmax: 10.3 ng/mL
  MRT: 4.4 h
  AUC(0-t): 67 ng·h/mL
[2]; [11]
  half-life: 5.1 h
[3]; [12]
  half-life: 15 to 19 h
[3]; [13]
  Cmax: 186 ng/g
  MRT: 11 h
[3]; [14]
  Tmax: 4 h
[3]; [15]
  T1/2: 18.2# h

## c1c2c(cc3c1OCO3)-c1cc3ccc4c(c3c[n+]1CC2)OCO4 [Coptisine, coptisine]
[1]; [19]
  Tmax: 4 h
[1]; [20]
  half-life: 4.3 h
[2]; [19]
  half-life: 4.7 h
[2]; [21]
  Tmax: 4 h
[3]; both sexes, Kunming, mouse, in vivo, po, AUC0–24 h liv/AUC0–24 h por
  Kp: 10.5
[3]; [19]
  Tmax: 2 h
[3]; [20]
  half-life: 3.7 h
[4]; in vivo, po, […], T1/2
  half-life: 10.8 h
[4]; in vivo, po, […], Tmax
  Tmax: 0.25 h

## O=c1c(-c2ccc(O)cc2)coc2cc(O)ccc12 [Daidzein, daidzein]
[1]; [19]
  Tmax: 1 h
[2]; [19]
  half-life: 2.6 h
[2]; [21]
  Tmax: 0.25 to 0.5 h
[3]; [19]
  T1/2: 3.6 h
  Tmax: 0.25 h
[3]; [20]
  half-life: 3 to 4 h
[4]; in vivo, po, […], T1/2
  half-life: 1.5 h
[4]; in vivo, po, […], Tmax
  Tmax: 0.25 to 0.5 h

## COc1ccc2cc3[n+](cc2c1OC)CCc1cc(O)c(O)cc1-3 [Demethyleneberberine, demethyleneberberine]
[1]; mouse, in vivo, po, […]
  T1/2: 2.4 h
[3]; mouse, in vivo, po, […]
  T1/2: 11.1 h

## COc1cc2c(cc1OC)-c1cc3ccc4c(c3c[n+]1CC2)OCO4 [Epiberberine, epiberberine]
[1]; mouse, in vivo, po, […]
  T1/2: 3.3 h
[2]; mouse, in vivo, po, […]
  T1/2: 5.6 h
[3]; mouse, in vivo, po
  AUC0–24 h liv/AUC0–24 h cir: 9.9
  AUC0–24 h liv/AUC0–24 h por: 3.8

## CC1(C)[C@@H](O[C@H]2O[C@H](C(=O)O)[C@@H](O)[C@H](O)[C@H]2O[C@@H]2O[C@H](C(=O)O)[C@@H](O)[C@H](O)[C@H]2O)CC[C@]2(C)[C@H]3C(=O)C=C4[C@@H]5C[C@@](C)(C(=O)O)CC[C@]5(C)CC[C@@]4(C)[C@]3(C)CC[C@@H]12 [Glycyrrhizic acid, glycyrrhizic acid]
[1]; [5]
  half-life: 3 to 4 h
[1]; [6]
  Cmax: 2010 ng/g
  MRT: 4.8 h
[1]; [7]
  Tmax: 2 h
[1]; [8]
  T1/2: 3.3 h
[2]; [9]
  Tmax: 2 h
[2]; [10]
  Cmax: 77.1 ng/mL
  MRT: 3.7 h
  AUC(0-t): 422 ng·h/mL
[2]; [11]
  half-life: 2.9 h
[3]; [12]
  half-life: 3.8 h
[3]; [13]
  Cmax: 148 ng/g
  MRT: 2.8 h
[3]; [14]
  Tmax: 1 h

## O=C1C[C@@H](c2ccc(O)cc2)Oc2cc(O)ccc21 [Liquiritigenin, liquiritigenin]
[1]; [8]
  T1/2: 3.4 h
  Tmax: 4.0 h
[2]; [22]
  T1/2: 5.9 h
  Tmax: 2.0 h
[3]; [15]
  Tmax: 0.25 h

## COc1c(O[C@@H]2O[C@H](C(=O)O)[C@@H](O)[C@H](O)[C@H]2O)cc(O)c2c(=O)cc(-c3ccccc3)oc12 [Wogonoside, wogonoside]
[2]; mouse, in vivo, po, […]
  T1/2: 2.6 h
[3]; mouse, in vivo, po
  AUC0–24 h liv/AUC0–24 h cir: 0.15
  AUC0–24 h liv/AUC0–24 h por: 0.03
[3]; mouse, in vivo, po, […]
  T1/2: 16.2 h
[4]; in vivo, po, […]
  T1/2: 3.9 h
